Measurements published in patent US11192880B2, “Quinolone compounds as inhibitors of the BCL6 BTB domain protein-protein interaction and/or as BCL6 degraders” (Ontario Institute for Cancer Research (OICR), priority 2017, dated 2021).

Tests used:
[1] = Liver microsomal metabolic stability, human; type: in vitro ADME; details: % remaining after 60 minutes, 1 μM compound, 0.5 mg/mL protein
Experimental: (§1) (f) Microsomal Stability Assays
(§2) Liver Microsomal Metabolic Stability
(§3) Working stocks were initially diluted to a concentration of 40.0 μM in 0.1 M potassium phosphate buffer (pH 7.4) before addition to the reaction vials. CD-1 mouse (male) or pooled human liver microsomes (Corning Gentest) were utilized at a final concentration of 0.5 mg/mL (protein). Duplicate wells were used for each time point (0 and 60 minutes). Reactions were carried out at 37° C. in an orbital shaker at 175 rpm, and the final DMSO concentration was kept constant at 0.1%. The final volume for each reaction was 100 μL, which includes the addition of an NADPH-Regeneration Solution (NRS) mix. This NRS mix is comprised of glucose 6-phosphate dehydrogenase, NADP+, MgCl2, and glucose 6-phosphate. Upon completion of the 60 minute time point, reactions were terminated by the addition of 2-volumes (200 μL) of ice-cold, acetonitrile containing 0.5% formic acid and internal standard. Samples were then centrifuged at 4,000 rpm for 10 minutes to remove debris and precipitated protein. Approximately 150 μL of supernatant was subsequently transferred to a new 96 well microplate for LC/MS analysis:
(§4) Narrow-window mass extraction LC-MS analysis was performed for all samples in this study using a Waters Xevo quadrupole time-of-flight (QTof) mass spectrometer to determine relative peak areas of test compounds. The percent remaining values are calculated using the following equations: % remaining=(A)/A0×100
(§5) A is area response after incubation
(§6) A0 is area response at initial time point

[2] = Liver microsomal metabolic stability, mouse; type: in vitro ADME; details: % remaining after 60 minutes, 1 μM compound, 0.5 mg/mL protein
Experimental: as §1, §2, §3, §4, §5, §6

[3] = reported; limits its use in animal studies; cited from earlier work
[4] = biological target: BTB domain of BCL6 / SMRT BBD peptide (Homo sapiens (Human), UniProt P41182); experiment: BCL6-BTB-SMRT peptide inhibition fluorescence polarization (FP) screen; type: binding; details: 1.25 uM BCL6-BTB, 20 nM Bodipy-TMR SMRT peptide probe; lower limit of assay 1 uM
Experimental: (a) BCL6-BTB-SMRT Peptide Inhibition Fluorescence Polarization (FP) Screen
Compounds were dissolved in 100% DMSO at 10 mM, assayed fresh, and then stored at −20° C. for repeat studies and future work. The reaction mixture consists of 1.25 uM of the 25 kd BCL6-BTB domain (Thioredoxin-His6-STag-TEV-biotinylation-thrombin-BCL6 amino acids 1-129) plus 20 nM of the peptide probe Ac-GSLVATVKEAGRSIHEIPA (SEQ ID NO:1) with 16 amino-acids (16-mer peptide) from the SMRT BBD (1414-1429) with a Bodipy-TMR fluorescent label on the lysine. […] 20 ul of this assay mixture was added to each well of the 384 well plates with the exception of the control wells that contained no protein (for setting the minimum FP value). Compounds were directly sprayed using an HP D300 Digital Dispenser from 10 mM DMSO stocks onto black 384 well plates (greiner bio-one #781900) in a concentration range from 1 uM to 500 uM (10 points in duplicate). The assay was equilibrated for 1 hour prior to reading the FP values (Ex 540 nm/Em 580 nm) with a Perkin Elmer Envision plate reader. The results were curve fitted and IC50 values were calculated using the BioAssay software from CambridgeSoft.

BCL6 BTB domain = BCL6 BTB domain (Homo sapiens (Human), UniProt P41182); experiment: Surface plasmon resonance (SPR) assay; type: binding; details: single cycle kinetic analysis, Biacore T200
Experimental: (b) Surface Plasmon Resonance (SPR) Assay
SPR studies were performed using a Biacore™ T200 instrument (GE Health Sciences Inc.). The BCL6 BTB protein used in the FP assay was biotinylated using the site specific biotinylating enzyme BirA, and then cleaved with TEV protease to produce the BCL6 BTB domain (biotin-thrombin-BCL6 amino acids 1-129; 17 kd) that was use in SPR. This protein was stably captured (1000 RU) to streptavidin coupled SA chips (BR-1005-31, GE Health Sciences Inc.) according to the manufacture's protocol. Compounds were dissolved in 100% DMSO at 10 mM and 2-fold serial dilutions were done in 100% DMSO. For SPR analysis the serially titrated compounds were diluted 1/20 into buffer (10 mM HEPES pH7.4, 150 mM NaCl, 0.05% Tween-20, 3 mM EDTA) giving a final concentration of 5% DMSO. The Biacore flow rate was set at 100 ul/min. For KD determinations, single cycle kinetic analysis was performed with an on time of 60 seconds, and an off time of 300 seconds. Curve fitting and KD calculations were done with the Biacore T200 Evaluation software (GE Health Sciences Inc).

[5] = test system: BCL6 reporter construct in SuDHL4-3xBCL6-TK-Luc cells; experiment: Cell-based BCL6 reporter luciferase assay; details: 48 h, two days
Experimental: (c) Cell-Based Luciferase Assay:
A BCL6 reporter construct containing three copies of the consensus BCL6 binding site, the TK promoter, and the firefly luciferase gene was stably expressed in SuDHL4 cells after lentivirus infection and selection with Blasticidin. SuDHL4-3xBCL6-TK-Luc cells were seeded into a Viewplate 384-well assay dish at 15,000 cells/well in 25 ul medium (Alpha-MEM high glucose containing 10% FBS, 25 mM HEPES, […] GlutaMAX, 100 ug/ml Normocin, and […] Gentamycin, Invitrogen). A HP D300 digital dispenser was used to dose cells with DMSO or test compounds across a 10-point range of concentrations (high dose of 10 uM), and cultures were grown in a humidified 5% CO2 incubator at 37° C. After two days, plates were removed from incubator and equilibrated to room temperature. An equal volume of neolite reporter gene assay reagent was added to each well, and samples were processed according to manufacturer's instructions (Perkin Elmer). Luminescent signal was measured using an Envision™ plate reader equipped with a US-Luminescence detector.

Karpas422 cells = experiment: Tumor cell growth inhibition assay; type: cell-based; details: Homo sapiens, KARPAS-422, 144 h, six days, ATPlite, read-out: GI Karpas EC50
Experimental: (d) Tumor Cell Growth Inhibition Assay:
Karpas422 cells were seeded into a 96-well plate at 2,000 cells/well in 150 ul medium (Alpha-MEM containing 10% FBS, […] Normocin, and […] Gentamycin, Invitrogen). A HP D300 digital dispenser was used to dose cells with DMSO or test compounds across a 10-point range of concentrations (high dose of 5 uM), and cultures were grown in a humidified 5% CO2 incubator at 37° C. After six days, plates were removed from incubator and equilibrated to room temperature. An equal volume of ATPlite assay reagent was added to each well, and samples were processed according to manufacturer's instructions (Perkin Elmer). Luminescent signal was measured using an Envision plate reader equipped with a US-Luminescence detector.

| Human Liver Microsomes (HLM, % @ 1 h) [1] [%] | Mouse Liver Microsomes (MLM, % @ 1 h) [2] [%] | IC50 [4] [nM] | Kd (BCL6 BTB domain) [nM] | IC50 [5] [nM] | EC50 (Karpas422 cells) [nM] | SMILES | bioavailability [3] |
| --- | --- | --- | --- | --- | --- | --- | --- |
| 25 | 13 | – | – | – | – | CNC(=O)COc1cc2cc(Nc3nc(N4C[C@H](C)C[C@H](C)C4)ncc3Cl)ccc2n(C)c1=O [BI-3802, reference compound] | poor bioavailability |
| 34 | 15 | 1600 | 5.73 | 433 | 92.6 | CNC(=O)COc1cc2cc(Nc3nc(N4C[C@@H](C)N[C@@H](C)C4)ncc3Cl)ccc2n(C)c1=O [Compound X-1, 2-((6-((5-chloro-2-((3S,5R)-3,5-dimethylpiperazin-1-yl)pyrimidin-4-yl)amino)-1-methyl-2-oxo-1,2-dihydroquinolin-3-yl)oxy)-N-methylacetamide] | – |
| 74 | 70 | 1200 | 10.3 | 91.9 | 30.6 | CNC(=O)COc1cc2cc(Nc3nc(N4C[C@@H](C)O[C@@H](C)C4)ncc3Cl)ccc2n(C)c1=O [Compound X-2] | – |
| 44 | 0.5 | 1800 | 15.7 | 643 | 37.8 | CNC(=O)COc1cc2cc(Nc3nc(N4CC5CCC(C4)C5(F)F)ncc3Cl)ccc2n(C)c1=O [Compound X-3] | – |
| 77 | 61 | 900 | 5.33 | 6.84 | 3.36 | CNC(=O)COc1cc2cc(Nc3nc(N4C[C@@H](C)C(F)(F)[C@@H](C)C4)ncc3Cl)ccc2n(C)c1=O [Ia] | – |
